The source of these data is patent US9499550B2 (BRISTOL-MYERS SQUIBB COMPANY, priority 2012, dated 2016).

For experiment [1], the system named is HCV genotype 1b (Con1) replicon in HUH-7 cells. Nature of the experiment: HCV replicon luciferase reporter assay, genotype 1b. The format is cell-based. The following applies: Hepatitis C virus, Huh-7, 72 h, HCV genotype 1b replicon luciferase assay, 3 days incubation. An excerpt:
(§1) Generation of HCV Replicon
An HCV replicon whole cell system was established as described by Lohmann V, Korner F, Koch J, Herian U, Theilmann L, Bartenschlager R., Science 285(5424):110-3 (1999) and modified to introduce a luciferase reporter, as first described by Krieger et al (Krieger N, Lohmann V, and Bartenschlager R, J. Virol. 75(10):4614-4624 (2001)). CDNA encoding a humanized form of the Renilla luciferase gene and a linker sequence fused directly to the 3′-end of the luciferase gene were introduced into the replicon construct using an Asc1 restriction site located in core, directly upstream of the neomycin marker gene. The adaptive mutation at position 1179 (serine to isoleucine) was also introduced (Blight K J, Kolykhalov, A A, Rice, C M, Science 290(5498):1972-1974). A stable cell line constitutively expressing this HCV replicon construct was generated by first linearizing plasmid DNAs with ScaI. RNA transcripts were synthesized in vitro using the T7 MegaScript transcription kit (Ambion, Austin, Tex.) according to manufacturer's directions. In vitro transcripts of the cDNA were transfected into the human hepatoma cell line, HUH-7. […] Resulting cell lines were characterized for positive and negative strand RNA production and protein production over time. […]
(§2) HCV Replicon Luciferase Reporter Assay
(§3) HCV replicon luciferase assays were developed to monitor the inhibitory effects of compounds described in the disclosure on HCV genotypes 1a and 1b viral replication. HUH-7 cells, constitutively expressing the HCV replicon, were grown in Dulbecco's Modified Eagle Media (DMEM) (Gibco-BRL) containing 10% Fetal calf serum (FCS) (Sigma) and 1 mg/mL G418 (Gibco-BRL). Compounds were serially diluted 3 folds in DMSO for a twenty-point titration and subsequently transferred to sterile 384-well tissue-culture treated plates (Corning cat #3571). The plates were then seeded with 50 μL of cells at a density of 3.0×10^3 cells/well in DMEM containing 4% FCS (final DMSO concentration at 0.5%). After 3 days incubation at 37° C., cells were analyzed for Renilla Luciferase activity using the EnduRen as substrate (Promega cat #E6485). The EnduRen substrate was diluted in DMEM and then added to the plates to a final concentration of 7.5 μM. The plates were incubated for 2 hrs at 37° C. and then read immediately for 30 seconds with Viewlux Imager (PerkinElmer) using a luminescence program. To assess cytotoxicity of compounds, CC50 values were generated by multiplexing the EnduRen-containing plates with Cell Titer-Blue (Promega, cat # G8082). Cell-Titer Blue (3 μL) was added to each well and incubated for 8 hrs at 37° C. The fluorescence signal from each well was read, with an excitation wavelength at 525/10 nm and an emission wavelength of 598/10 nm, using the Viewlux Imager.
(§4) The EC50 values for compounds were calculated by using a four-parameter logistic equation: y=A+((B−A)/(1+((C/x)^D))), where A and B denotes minimal and maximal % inhibition, respectively, C is the EC50, D is the hill slope and x represents compound concentration.
On the technique in general: In antiviral work, replicon cells carry a viral genome segment that copies itself.

For experiment [2], the system named is HCV genotype 1a (H77 strain) replicon in HUH-7 cells. Nature of the experiment: HCV replicon luciferase reporter assay, genotype 1a. It counts as cell-based. The following applies: Hepatitis C virus, Huh-7, 72 h, HCV genotype 1a replicon luciferase assay, 3 days incubation.
From the text: as §1
An HCV replicon whole cell system was established as described by Lohmann V, Korner F, Koch J, Herian U, Theilmann L, Bartenschlager R., Science 285(5424):110-3 (1999) and modified to introduce a luciferase reporter, as first described by Krieger et al (Krieger N, Lohmann V, and Bartenschlager R, J. Virol. 75(10):4614-4624 (2001)). CDNA encoding a humanized form of the Renilla luciferase gene and a linker sequence fused directly to the 3′-end of the luciferase gene were introduced into the replicon construct using an Asc1 restriction site located in core, directly upstream of the neomycin marker gene. The adaptive mutation at position 1179 (serine to isoleucine) was also introduced (Blight K J, Kolykhalov, A A, Rice, C M, Science 290(5498):1972-1974). A stable cell line constitutively expressing this HCV replicon construct was generated by first linearizing plasmid DNAs with ScaI. RNA transcripts were synthesized in vitro using the T7 MegaScript transcription kit (Ambion, Austin, Tex.) according to manufacturer's directions. In vitro transcripts of the cDNA were transfected into the human hepatoma cell line, HUH-7. […] Resulting cell lines were characterized for positive and negative strand RNA production and protein production over time.
A stable HCV replicon luciferase reporter cell line representing the genotype 1a H77 strain (Yanagi M, Purcell R H, Emerson S U, et al. Transcripts from a single full-length cDNA clone of hepatitis C virus are infectious when directly transfected into the liver of a chimpanzee. Proc Natl Acad Sci USA 1997; 94(16):8738-8743) was generated as described previously for the genotype 1b(Con1) replicon luciferase cell line. The replicon construct was modified by introducing mutations were introduced into the genes encoding the NS3 helicase domain (proline replaced by leucine at position 1496) and NSSA (serine to isoleucine at position 2204) to improve replication in cell culture.
as §2, §3, §4

Setting [3] is: range class, read-out: LE_1b (EC50, range).
The mark [4] stands for this setting: range class, read-out: LE_1a (EC50, range).

As usually defined, the EC50 is the concentration needed to bring the measured effect to its halfway point.

Where two headings read alike, the source gives them in different places.

As to `COc1cnc(O[C@@H]2C[C@H]3C(=O)N[C@]4(C(=O)NS(=O)(=O)C5(F)CC5)C[C@H]4/C=C\CC[C@@H](C)C[C@@H](C)[C@H](NC(=O)OC(C)(C)C(F)(F)F)C(=O)N3C2)c2ccccc12` [Compound 14, 1,1,1-trifluoro-2-methylpropan-2-yl((2R,6S,7R,9R,13aS,14aR,16aS,Z)-14a-(((1-fluorocyclopropyl)sulfonyl)carbamoyl)-2-((4-methoxyisoquinolin-1-yl)oxy)-7,9-dimethyl-5,16-dioxo-1,2,3,5,6,7,8,9,10,11,13a,14,14a,15,16,16a-hexadecahydrocyclopropa[e]pyrrolo[1,2-a][1,4]diazacyclopentadecin-6-yl)carbamate], the EC50 in experiment [1] (setting [3]) and in experiment [2] (setting [4]) was less than 5.46 nM in each case.
In the case of `COc1cnc(O[C@@H]2C[C@H]3C(=O)N[C@]4(C(=O)NS(=O)(=O)C5(F)CC5)C[C@H]4/C=C\CC[C@H](C)C[C@@H](C)[C@H](NC(=O)OC(C)(C)C(F)(F)F)C(=O)N3C2)c2ccccc12` [Compound 15, 1,1,1-trifluoro-2-methylpropan-2-yl((2R,6S,7R,9S,13aS,14aR,16aS,Z)-14a-(((1-fluorocyclopropyl)sulfonyl)carbamoyl)-2-((4-methoxyisoquinolin-1-yl)oxy)-7,9-dimethyl-5,16-dioxo-1,2,3,5,6,7,8,9,10,11,13a,14,14a,15,16,16a-hexadecahydrocyclopropa[e]pyrrolo[1,2-a][1,4]diazacyclopentadecin-6-yl)carbamate], the 50% effective concentration (EC50) in experiment [1] (setting [3]) and in experiment [2] (setting [4]) was less than 5.46 nM each time.
Take `CCOc1cnc(O[C@@H]2C[C@H]3C(=O)N[C@]4(C(=O)NS(=O)(=O)C5CC5)C[C@H]4/C=C\CC[C@@H](C)C[C@@H](C)[C@H](NC(=O)OC(C)(C)C)C(=O)N3C2)c2ccccc12` [Compound 16, tert-butyl ((2R,6S,7R,9R,13aS,14aR,16aS,Z)-14a-((cyclopropylsulfonyl)carbamoyl)-2-((4-ethoxyisoquinolin-1-yl)oxy)-7,9-dimethyl-5,16-dioxo-1,2,3,5,6,7,8,9,10,11,13a,14,14a,15,16,16a-hexadecahydrocyclopropa[e]pyrrolo[1,2-a][1,4]diazacyclopentadecin-6-yl)carbamate]: the EC50 in experiment [1] (setting [3]) and in experiment [2] (setting [4]) was less than 5.46 nM each time.
On to `CCOc1cnc(O[C@@H]2C[C@H]3C(=O)N[C@]4(C(=O)NS(=O)(=O)C5CC5)C[C@H]4/C=C\CC[C@@H](C)C[C@@H](C)[C@H](NC(=O)OC(C)(C)C(F)(F)F)C(=O)N3C2)c2ccccc12` [Compound 18, 1,1,1-trifluoro-2-methylpropan-2-yl((2R,6S,7R,9R,13aS,14aR,16aS,Z)-14a-((cyclopropylsulfonyl)carbamoyl)-2-((4-ethoxyisoquinolin-1-yl)oxy)-7,9-dimethyl-5,16-dioxo-1,2,3,5,6,7,8,9,10,11,13a,14,14a,15,16,16a-hexadecahydrocyclopropa[e]pyrrolo[1,2-a][1,4]diazacyclopentadecin-6-yl)carbamate], for which the half-maximal effective concentration (EC50) in experiment [1] (setting [3]) and in experiment [2] (setting [4]) was less than 5.46 nM each time.
Regarding `CC(C)Oc1cnc(O[C@@H]2C[C@H]3C(=O)N[C@]4(C(=O)NS(=O)(=O)C5CC5)C[C@H]4/C=C\CC[C@@H](C)C[C@@H](C)[C@H](NC(=O)OC(C)(C)C(F)(F)F)C(=O)N3C2)c2ccccc12` [Compound 20, 1,1,1-trifluoro-2-methylpropan-2-yl((2R,6S,7R,9R,13aS,14aR,16aS,Z)-14a-((cyclopropylsulfonyl)carbamoyl)-2-((4-isopropoxyisoquinolin-1-yl)oxy)-7,9-dimethyl-5,16-dioxo-1,2,3,5,6,7,8,9,10,11,13a,14,14a,15,16,16a-hexadecahydrocyclopropa[e]pyrrolo[1,2-a][1,4]diazacyclopentadecin-6-yl)carbamate], the EC50 in experiment [1] (setting [3]) and in experiment [2] (setting [4]) was less than 5.46 nM throughout.
In the case of `C[C@@H]1CC/C=C\[C@@H]2C[C@@]2(C(=O)NS(=O)(=O)C2CC2)NC(=O)[C@@H]2C[C@@H](Oc3ncc(OC4CC4)c4ccccc34)CN2C(=O)[C@@H](NC(=O)OC(C)(C)C)[C@H](C)C1` [Compound 22, tert-butyl ((2R,6S,7R,9R,13aS,14aR,16aS,Z)-2-((4-cyclopropoxyisoquinolin-1-yl)oxy)-14a-((cyclopropylsulfonyl)carbamoyl)-7,9-dimethyl-5,16-dioxo-1,2,3,5,6,7,8,9,10,11,13a,14,14a,15,16,16a-hexadecahydrocyclopropa[e]pyrrolo[1,2-a][1,4]diazacyclopentadecin-6-yl)carbamate], the EC50 in experiment [1] (setting [3]) is less than 5.46 nM; in experiment [1] (read-out: LE_1b (EC50)), 0.4 nM; in experiment [2] (setting [4]), less than 5.46 nM; in experiment [2] (read-out: LE_1a (EC50)) it was 0.43 nM.
As to `C[C@@H]1CC/C=C\[C@@H]2C[C@@]2(C(=O)NS(=O)(=O)C2CC2)NC(=O)[C@@H]2C[C@@H](Oc3ncc(OC4CC4)c4ccccc34)CN2C(=O)[C@@H](NC(=O)OC(C)(C)C(F)(F)F)[C@H](C)C1` [Compound 24, 1,1,1-trifluoro-2-methylpropan-2-yl((2R,6S,7R,9R,13aS,14aR,16aS,Z)-2-((4-cyclopropoxyisoquinolin-1-yl)oxy)-14a-((cyclopropylsulfonyl)carbamoyl)-7,9-dimethyl-5,16-dioxo-1,2,3,5,6,7,8,9,10,11,13a,14,14a,15,16,16a-hexadecahydrocyclopropa[e]pyrrolo[1,2-a][1,4]diazacyclopentadecin-6-yl)carbamate], the EC50 in experiment [1] (setting [3]) and in experiment [2] (setting [4]) was less than 5.46 nM in each case.
Regarding `C[C@H]1CC/C=C\[C@@H]2C[C@@]2(C(=O)NS(=O)(=O)C2CC2)NC(=O)[C@@H]2C[C@@H](Oc3ncc(OC4CC4)c4ccccc34)CN2C(=O)[C@@H](NC(=O)OC(C)(C)C(F)(F)F)[C@H](C)C1` [Compound 25, 1,1,1-trifluoro-2-methylpropan-2-yl((2R,6S,7R,9S,13aS,14aR,16aS,Z)-2-((4-cyclopropoxyisoquinolin-1-yl)oxy)-14a-((cyclopropylsulfonyl)carbamoyl)-7,9-dimethyl-5,16-dioxo-1,2,3,5,6,7,8,9,10,11,13a,14,14a,15,16,16a-hexadecahydrocyclopropa[e]pyrrolo[1,2-a][1,4]diazacyclopentadecin-6-yl)carbamate], the EC50 in experiment [1] (setting [3]) and in experiment [2] (setting [4]) was 4.82 to 103 nM in each case.
